Assay results: PubChem BioAssay (NCI)
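Five concentrations, 48 hours, 96-well plates. TGI: total growth inhibition.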

Legend:
Assay in all cases: inhibition of tumour cell growth, NCI panel, 48 h
786-0 renal = test system: 786-0 renal
A498 renal = test system: A498 renal
A549 NSCLC = test system: A549 NSCLC
ACHN renal = test system: ACHN renal
BT-549 breast = test system: BT-549 breast
CAKI-1 renal = test system: CAKI-1 renal
CCRF-CEM leukemia = test system: CCRF-CEM leukemia
COLO 205 colon = test system: COLO 205 colon
DU-145 prostate = test system: DU-145 prostate
EKVX NSCLC = test system: EKVX NSCLC
HCC-2998 colon = test system: HCC-2998 colon
HCT-116 colon = test system: HCT-116 colon
HCT-15 colon = test system: HCT-15 colon
HL-60(TB) leukemia = test system: HL-60(TB) leukemia
HOP-62 NSCLC = test system: HOP-62 NSCLC
HOP-92 NSCLC = test system: HOP-92 NSCLC
HS 578T breast = test system: HS 578T breast
HT29 colon = test system: HT29 colon
IGROV1 ovarian = test system: IGROV1 ovarian
KM12 colon = test system: KM12 colon
LOX IMVI melanoma = test system: LOX IMVI melanoma
M14 melanoma = test system: M14 melanoma
MALME-3M melanoma = test system: MALME-3M melanoma
MCF7 breast = test system: MCF7 breast
MDA-MB-231 breast = test system: MDA-MB-231 breast
MDA-MB-435 = test system: MDA-MB-435
MDA-N = test system: MDA-N
MOLT-4 leukemia = test system: MOLT-4 leukemia
NCI-H226 lung = test system: NCI-H226 lung
NCI-H23 lung = test system: NCI-H23 lung
NCI-H460 lung = test system: NCI-H460 lung
NCI-H522 lung = test system: NCI-H522 lung
NCI/ADR-RES ovarian = test system: NCI/ADR-RES ovarian
OVCAR-3 ovarian = test system: OVCAR-3 ovarian
OVCAR-4 ovarian = test system: OVCAR-4 ovarian
OVCAR-5 ovarian = test system: OVCAR-5 ovarian
OVCAR-8 ovarian = test system: OVCAR-8 ovarian
PC-3 prostate = test system: PC-3 prostate
RPMI-8226 leukemia = test system: RPMI-8226 leukemia
RXF 393 renal = test system: RXF 393 renal
SF-268 CNS = test system: SF-268 CNS
SF-295 CNS = test system: SF-295 CNS
SF-539 CNS = test system: SF-539 CNS
SK-MEL-2 melanoma = test system: SK-MEL-2 melanoma
SK-MEL-28 melanoma = test system: SK-MEL-28 melanoma
SK-MEL-5 melanoma = test system: SK-MEL-5 melanoma
SK-OV-3 ovarian = test system: SK-OV-3 ovarian
SN12C renal = test system: SN12C renal
SNB-19 CNS = test system: SNB-19 CNS
SNB-75 CNS = test system: SNB-75 CNS
SR leukemia = test system: SR leukemia
SW-620 colon = test system: SW-620 colon
T-47D breast = test system: T-47D breast
TK-10 renal = test system: TK-10 renal
U251 CNS = test system: U251 CNS
UACC-257 melanoma = test system: UACC-257 melanoma
UACC-62 melanoma = test system: UACC-62 melanoma
UO-31 renal = test system: UO-31 renal

Compound: C/C(=N\Nc1nc2ccccc2s1)c1cc(C)ncn1
- TGI (786-0 renal): > 47.3 µM
- TGI (A498 renal): > 100 µM
- TGI (A549 NSCLC): > 45.2 µM
- TGI (ACHN renal): > 32 µM
- TGI (BT-549 breast): > 46.3 µM
- TGI (CAKI-1 renal): 6.63 µM
- TGI (CCRF-CEM leukemia): 4.2 µM
- TGI (COLO 205 colon): 4.71 µM
- TGI (DU-145 prostate): 45.1 µM
- TGI (EKVX NSCLC): 17.1 µM
- TGI (HCC-2998 colon): 14.6 µM
- TGI (HCT-116 colon): > 27.2 µM
- TGI (HCT-15 colon): 13 µM
- TGI (HL-60(TB) leukemia): > 100 µM
- TGI (HOP-62 NSCLC): 18.3 µM
- TGI (HOP-92 NSCLC): > 30.6 µM
- TGI (HS 578T breast): 12.7 µM
- TGI (HT29 colon): > 34.6 µM
- TGI (IGROV1 ovarian): 20.5 µM
- TGI (KM12 colon): 14.2 µM
- TGI (LOX IMVI melanoma): > 100 µM
- TGI (M14 melanoma): 25.7 µM
- TGI (MALME-3M melanoma): > 36.1 µM
- TGI (MCF7 breast): > 19.4 µM
- TGI (MDA-MB-231 breast): 9.47 µM
- TGI (MDA-MB-435): > 54.1 µM
- TGI (MDA-N): 47.3 µM
- TGI (MOLT-4 leukemia): 4.15 µM
- TGI (NCI-H226 lung): 4.46 µM
- TGI (NCI-H23 lung): 15.7 µM
- TGI (NCI-H460 lung): 9.16 µM
- TGI (NCI-H522 lung): 5.04 µM
- TGI (NCI/ADR-RES ovarian): 4.91 µM
- TGI (OVCAR-3 ovarian): > 25 µM
- TGI (OVCAR-4 ovarian): > 39.8 µM
- TGI (OVCAR-5 ovarian): > 68.2 µM
- TGI (OVCAR-8 ovarian): 4.01 µM
- TGI (PC-3 prostate): 34.5 µM
- TGI (RPMI-8226 leukemia): > 21 µM
- TGI (RXF 393 renal): 20 µM
- TGI (SF-268 CNS): 3.16 µM
- TGI (SF-295 CNS): 30.9 µM
- TGI (SF-539 CNS): 35 µM
- TGI (SK-MEL-2 melanoma): 23 µM
- TGI (SK-MEL-28 melanoma): > 55.8 µM
- TGI (SK-MEL-5 melanoma): 13 µM
- TGI (SK-OV-3 ovarian): > 35.7 µM
- TGI (SN12C renal): 15.1 µM
- TGI (SNB-19 CNS): 61.5 µM
- TGI (SNB-75 CNS): 15.1 µM
- TGI (SR leukemia): 9.82 µM
- TGI (SW-620 colon): > 53.2 µM
- TGI (T-47D breast): > 100 µM
- TGI (TK-10 renal): > 100 µM
- TGI (U251 CNS): > 49.6 µM
- TGI (UACC-257 melanoma): > 27.2 µM
- TGI (UACC-62 melanoma): > 32.8 µM
- TGI (UO-31 renal): 3.84 µM
